# Data taken from article PMC10866072, “Design, synthesis, molecular modelling and biological evaluation of novel 6-amino-5-cyano-2-thiopyrimidine derivatives as potent anticancer agents against leukemia and apoptotic inducers” (Journal of Enzyme Inhibition and Medicinal Chemistry, 2024).
# Key:
# HT29 = type: cell-based; conditions: Homo sapiens, HT-29, one dose 10^-5 M, 48 h
# LOX IMVI = type: cell-based; conditions: Homo sapiens, one dose 10^-5 M, 48 h, read-out: % growth
# RPMI-8226 = type: cell-based; conditions: Homo sapiens, one dose 10^-5 M, 48 h
# SF-539 = type: cell-based; conditions: Homo sapiens, one dose 10^-5 M, 48 h
# SK-MEL-2 = type: cell-based; conditions: Homo sapiens, one dose 10^-5 M, 48 h
# K-562 = type: cell-based; conditions: Homo sapiens, K562, one dose 10^-5 M, 48 h
# DU-145 = type: cell-based; conditions: Homo sapiens, one dose 10^-5 M, 48 h
# BT-549 = type: cell-based; conditions: Homo sapiens, one dose 10^-5 M, 48 h
# MDA-MB-435 = type: cell-based; conditions: Homo sapiens, one dose 10^-5 M, 48 h, read-out: % growth
# EKVX = type: cell-based; conditions: Homo sapiens, one dose 10^-5 M, 48 h
# NCI-H226 = type: cell-based; conditions: Homo sapiens, one dose 10^-5 M, 48 h
# CCRF-CEM = type: cell-based; conditions: Homo sapiens, one dose 10^-5 M, 48 h
# PC-3 = type: cell-based; conditions: Homo sapiens, one dose 10^-5 M, 48 h
# M14 = type: cell-based; conditions: Homo sapiens, one dose 10^-5 M, 48 h
# T-47D = type: cell-based; conditions: Homo sapiens, T47D, one dose 10^-5 M, 48 h, read-out: % growth
# SN12C = type: cell-based, human; conditions: Homo sapiens, one dose 10^-5 M, 48 h
# U251 = type: cell-based; conditions: Homo sapiens, U-251, one dose 10^-5 M, 48 h
# NCI-H23 = type: cell-based; conditions: Homo sapiens, one dose 10^-5 M, 48 h, read-out: % growth
# HL-60(TB) = type: cell-based; conditions: Homo sapiens, one dose 10^-5 M, 48 h
# TK-10 = type: cell-based; conditions: Homo sapiens, one dose 10^-5 M, 48 h
# MOLT-4 = type: cell-based; conditions: Homo sapiens, one dose 10^-5 M, 48 h, read-out: % growth
# HS 578T = type: cell-based; conditions: Homo sapiens; one dose 10^-5 M, 48 h; HS 578T; read-out: % growth
# SW-620 = type: cell-based; conditions: Homo sapiens, one dose 10^-5 M, 48 h
# UACC-62 = type: cell-based; conditions: Homo sapiens, one dose 10^-5 M, 48 h
# CAKI-1 = type: cell-based; conditions: Homo sapiens, CAKI-1, 48 h, one dose 10^-5 M, 48 h
# OVCAR-3 = type: cell-based; conditions: Homo sapiens, one dose 10^-5 M, 48 h
# SNB-19 = type: cell-based; conditions: Homo sapiens, one dose 10^-5 M, 48 h, read-out: % growth
# OVCAR-4 = type: cell-based; conditions: Homo sapiens, one dose 10^-5 M, 48 h
# MALME-3M = type: cell-based; conditions: Homo sapiens, one dose 10^-5 M, 48 h
# NCI/ADR-RES = type: cell-based; conditions: Homo sapiens, one dose 10^-5 M, 48 h
# SR = type: cell-based; conditions: Homo sapiens, one dose 10^-5 M, 48 h
# HCC-2998 = type: cell-based; conditions: Homo sapiens, one dose 10^-5 M, 48 h
# 786-0 = type: cell-based; conditions: Homo sapiens, one dose 10^-5 M, 48 h
# MDA-MB-468 = type: cell-based; conditions: Homo sapiens, one dose 10^-5 M, 48 h
# SF-295 = type: cell-based; conditions: Homo sapiens, one dose 10^-5 M, 48 h
# NCI-H522 = type: cell-based; conditions: Homo sapiens, one dose 10^-5 M, 48 h
# OVCAR-8 = type: cell-based; conditions: Homo sapiens, one dose 10^-5 M, 48 h
# HOP-62 = type: cell-based; conditions: Homo sapiens, one dose 10^-5 M, 48 h
# UACC-257 = type: cell-based; conditions: Homo sapiens, one dose 10^-5 M, 48 h
# SK-MEL-5 = type: cell-based; conditions: Homo sapiens, one dose 10^-5 M, 48 h, read-out: % growth
# HOP-92 = type: cell-based; conditions: Homo sapiens, one dose 10^-5 M, 48 h
# SK-MEL-28 = type: cell-based; conditions: Homo sapiens, one dose 10^-5 M, 48 h
# SNB-75 = type: cell-based; conditions: Homo sapiens, one dose 10^-5 M, 48 h
# [1] = test system: full NCI 60 cell lines panel; conditions: for activity at 10 µM: Homo sapiens, 60 cell, 48 h, read-out: Mean % growth; for activity on all 60 cancer cell lines tested (in words): one dose
# UO-31 = type: cell-based; conditions: Homo sapiens, UO-31, 48 h, one dose 10^-5 M, 48 h
# KM12 = type: cell-based; conditions: Homo sapiens, one dose 10^-5 M, 48 h
# NCI-H460 = type: cell-based; conditions: Homo sapiens, one dose 10^-5 M, 48 h, read-out: % growth
# OVCAR-5 = type: cell-based; conditions: Homo sapiens, one dose 10^-5 M, 48 h
# A498 = type: cell-based; conditions: Homo sapiens, one dose 10^-5 M, 48 h
# HCT-116 = type: cell-based; conditions: Homo sapiens, one dose 10^-5 M, 48 h, read-out: % growth
# COLO 205 = type: cell-based; conditions: Homo sapiens, one dose 10^-5 M, 48 h
# HCT-15 = type: cell-based; conditions: Homo sapiens, one dose 10^-5 M, 48 h, read-out: % growth
# MDA-MB-231/ATCC = type: cell-based; conditions: Homo sapiens, one dose 10^-5 M, 48 h
# SF-268 = type: cell-based; conditions: Homo sapiens, one dose 10^-5 M, 48 h, read-out: % growth
# ACHN = type: cell-based; conditions: Homo sapiens, one dose 10^-5 M, 48 h
# SK-OV-3 = type: cell-based; conditions: Homo sapiens, one dose 10^-5 M, 48 h
# IGROV1 = type: cell-based; conditions: Homo sapiens, IGROV-1, one dose 10^-5 M, 48 h, read-out: % growth
# A549/ATCC = type: cell-based; conditions: Homo sapiens, one dose 10^-5 M, 48 h
# MCF7 = type: cell-based; conditions: Homo sapiens, one dose 10^-5 M, 48 h, read-out: % growth
compound,measurement,setting,value
"CN(C)c1ccc(-c2nc(S)nc(N)c2C(=N)NN=Cc2ccccc2)cc1 [Compound 4a, 4-Amino-6-[4-(dimethylamino)phenyl]-2-mercapto-N'-[phenylmethylene] pyrimidine-5-carboximidohydrazide]",% growth at 10 µM,HT29,101%
same,activity at 10 µM,LOX IMVI,98.3%
same,% growth at 10 µM,RPMI-8226,89.8%
same,% growth at 10 µM,SF-539,106%
same,% growth at 10 µM,SK-MEL-2,108%
same,% growth at 10 µM,K-562,107%
same,% growth at 10 µM,DU-145,104%
same,% cell growth at 10 µM,BT-549,103%
same,activity at 10 µM,MDA-MB-435,99.4%
same,% cell growth at 10 µM,EKVX,96.3%
same,% growth at 10 µM,NCI-H226,98.6%
same,% cell growth at 10 µM,CCRF-CEM,82%
same,percent cell growth at 10 µM,PC-3,85.1%
same,% growth at 10 µM,M14,106%
same,activity at 10 µM,T-47D,105%
same,% growth at 10 µM,SN12C,103%
same,% growth at 10 µM,U251,111%
same,activity at 10 µM,NCI-H23,104%
same,% growth at 10 µM,HL-60(TB),94.7%
same,% cell growth at 10 µM,TK-10,105%
same,activity at 10 µM,MOLT-4,106%
same,activity at 10 µM,HS 578T,113%
same,% growth at 10 µM,SW-620,108%
same,% growth at 10 µM,UACC-62,97.9%
same,% growth at 10 µM,CAKI-1,99%
same,% growth at 10 µM,OVCAR-3,102%
same,activity at 10 µM,SNB-19,102%
same,% growth at 10 µM,OVCAR-4,101%
same,% growth at 10 µM,MALME-3M,105%
same,cell growth percent at 10 µM,NCI/ADR-RES,104%
same,percent cell growth at 10 µM,SR,104%
same,% growth at 10 µM,HCC-2998,113%
same,% growth at 10 µM,786-0,102%
same,percent cell growth at 10 µM,MDA-MB-468,117%
same,% cell growth at 10 µM,SF-295,104%
same,% growth at 10 µM,NCI-H522,99.4%
same,% growth of cells at 10 µM,OVCAR-8,115%
same,% growth at 10 µM,HOP-62,109%
same,percent cell growth at 10 µM,UACC-257,106%
same,activity at 10 µM,SK-MEL-5,103%
same,% growth at 10 µM,HOP-92,114%
same,% cell growth at 10 µM,SK-MEL-28,105%
same,% growth at 10 µM,SNB-75,101%
same,activity at 10 µM,[1],104%
same,activity on all 60 cancer cell lines tested (in words),[1],weak activity
same,% cell growth at 10 µM,UO-31,75%
same,% growth at 10 µM,KM12,107%
same,activity at 10 µM,NCI-H460,104%
same,percent cell growth at 10 µM,OVCAR-5,111%
same,% growth at 10 µM,A498,107%
same,activity at 10 µM,HCT-116,110%
same,% growth at 10 µM,COLO 205,140%
same,activity at 10 µM,HCT-15,99.9%
same,% growth at 10 µM,MDA-MB-231/ATCC,109%
same,activity at 10 µM,SF-268,104%
same,% growth at 10 µM,ACHN,101%
same,% growth at 10 µM,SK-OV-3,118%
same,activity at 10 µM,IGROV1,111%
same,% growth at 10 µM,A549/ATCC,103%
same,activity at 10 µM,MCF7,93.1%
"CN(C)c1ccc(-c2nc(S)nc(N)c2C(=N)NN=Cc2ccc(Cl)cc2)cc1 [Compound 4b, 4-amino-N'-[(4-chlorophenyl)methylene]-6-[4-(dimethylamino)phenyl]-2-mercapto pyrimidine-5-carboximidohydrazide]",% growth at 10 µM,HT29,92.7%
same,activity at 10 µM,LOX IMVI,103%
same,% growth at 10 µM,RPMI-8226,79.1%
same,% growth at 10 µM,SF-539,98%
same,% growth at 10 µM,SK-MEL-2,107%
same,% growth at 10 µM,K-562,98.5%
same,% growth at 10 µM,DU-145,100%
same,% cell growth at 10 µM,BT-549,95.7%
same,activity at 10 µM,MDA-MB-435,96.2%
same,% cell growth at 10 µM,EKVX,91.8%
same,% growth at 10 µM,NCI-H226,99.8%
same,% cell growth at 10 µM,CCRF-CEM,76.3%
same,percent cell growth at 10 µM,PC-3,91.5%
same,% growth at 10 µM,M14,96.9%
same,activity at 10 µM,T-47D,88.3%
same,% growth at 10 µM,SN12C,88.5%
same,% growth at 10 µM,U251,106%
same,activity at 10 µM,NCI-H23,101%
same,% growth at 10 µM,HL-60(TB),91.8%
same,% cell growth at 10 µM,TK-10,90%
same,activity at 10 µM,MOLT-4,101%
same,activity at 10 µM,HS 578T,97.5%
same,% growth at 10 µM,SW-620,102%
same,% growth at 10 µM,UACC-62,94%
same,% growth at 10 µM,CAKI-1,102%
same,% growth at 10 µM,OVCAR-3,102%
same,activity at 10 µM,SNB-19,98.8%
same,% growth at 10 µM,OVCAR-4,95.5%
same,% growth at 10 µM,MALME-3M,98.7%
same,cell growth percent at 10 µM,NCI/ADR-RES,104%
same,percent cell growth at 10 µM,SR,98.7%
same,% growth at 10 µM,HCC-2998,94.3%
same,% growth at 10 µM,786-0,86.7%
same,percent cell growth at 10 µM,MDA-MB-468,107%
same,% cell growth at 10 µM,SF-295,96.8%
same,% growth at 10 µM,NCI-H522,92.4%
same,% growth of cells at 10 µM,OVCAR-8,106%
same,% growth at 10 µM,HOP-62,109%
same,percent cell growth at 10 µM,UACC-257,99.7%
same,activity at 10 µM,SK-MEL-5,97.6%
same,% growth at 10 µM,HOP-92,118%
same,% cell growth at 10 µM,SK-MEL-28,103%
same,% growth at 10 µM,SNB-75,95.2%
same,activity at 10 µM,[1],98.2%
same,activity on all 60 cancer cell lines tested (in words),[1],weak activity
same,% cell growth at 10 µM,UO-31,65.4%
same,% growth at 10 µM,KM12,92.9%
same,activity at 10 µM,NCI-H460,99.8%
same,percent cell growth at 10 µM,OVCAR-5,109%
same,% growth at 10 µM,A498,92.1%
same,activity at 10 µM,HCT-116,100%
same,% growth at 10 µM,COLO 205,137%
same,activity at 10 µM,HCT-15,92.3%
same,% growth at 10 µM,MDA-MB-231/ATCC,102%
same,activity at 10 µM,SF-268,97.5%
same,% growth at 10 µM,ACHN,102%
same,% growth at 10 µM,SK-OV-3,120%
same,activity at 10 µM,IGROV1,102%
same,% growth at 10 µM,A549/ATCC,98.4%
same,activity at 10 µM,MCF7,90.9%
